Reference: US20040132027A1, “Screening method for discovering auxiliary agents promoting endocytosis” (priority 2000, published 2004)

Test system: yeast cells of the strain RPY10
Assay: Transformation rate of yeast cells incubated with plasmid YEP24, with and without auxiliary agent
Format: cell-based, Saccharomyces cerevisiae
Settings: 5 μl chloroquine (100 mM solution) in 1 ml 1M saccharose pH 3.3, 10 μg YEP24, 24 h at 24° C., without chloroquine 0.8
Protocol: A test method for the quantification of the uptake and the endocytosis transfer was made as follows. […] cells from the logarithmic growth phase of the strain RPY10 (Matα, leu2-3, ura3, his4 ade6 (4×10^7−7×10^7 cells per ml) (Piper, R. C., Whitters, E. A., Stevens, T. H. (1994) Yeast VpsS4p is a Sec 1p-like protein required for the consumption of vacuolar targeted, post-Golgi vesicles. Eur. J. Cell Biol. 65:305-318) were incubated for 24 h with 10 μg of the purified plasmid YEP24 (see: D. Bothstein et al., 1979, Gene 8:17-24), with and without auxiliary agent. The structure of the plasmid is shown in FIG. 1.
Prior to the incubation, the cells were washed with the plasmid with at least twice the same volume of H2O and taken up in 1 ml 1M saccharose (pH 3.3, high concentrations of fermentable sugar), re-suspended with the pipette tip and brought in one 10 ml each falcon tube. […] Both were incubated for 5 min at room temperature.
Then 10 μg DNA from the same DNA preparation were pipetted thereto (in 3-100 μl). The falcon tubes were firmly closed and agitated for 24 hours in a water bath or breeding room at 24° C. (the optimum transformation rate is at 24° C.-28° C). […]
After the incubation, 200-500 cells per plate on YE plates (full medium) were plated out, and the colony-forming units (CFU) were determined. […] After 5 days at 24° C., the CFU were counted and tested by means of PCR. […]

CCN(CC)CCCC(C)Nc1ccnc2cc(Cl)ccc12 (stereo not shown) [chloroquine]
transformation rate: 10.2 10^−8 transformants/CFU
